According to US20140275197A1, “ALPHA-2 ADRENERGIC AGONIST FOR TREATING INTRAOCULAR PRESSURE AND OCULAR DISEASES THROUGH INTRAVITREAL AND INTRACAMERAL ROUTES” (priority 2013, published 2014):
Entries after “also recorded” stand apart in the source; their conditions may differ.

Experiments:
[1] = cited from earlier work
dutch belted rabbits [2] = test: Intraocular pressure lowering after bolus intracameral (IC) injection at equimolar concentration; assay type: in vivo, rabbit
Source text: Due to the chemical similarity and the pharmacokinetics profile of brimonidine, 4-bromo-N-imidazolidin-2-ylidene-1-H-benzimidazol-5-amine and dexmedetomidine, it would be expected for these molecules to have a similar behavior following intravitreal bolus injection into the back of the eye.

dutch belted rabbits [3] = test: Intraocular pressure lowering after intravitreal (IVT) injection at equimolar concentration; assay type: in vivo, rabbit
[4] = in vivo
[5] = rat, in vivo, po; cited from earlier work
[6] = increasing amount of brimonidine

Compound | clearance from the aqueous humor ([1]; following topical dosing) | potency versus brimonidine and dexmedetomidine (dutch belted rabbits [2]; administered intracamerally at equimolar concentration, normotensive rabbits) | IOP decrease compared with brimonidine and dexmedetomidine (dutch belted rabbits [2]; bolus intracameral injection, equimolar concentration, rabbits) | IOP decrease compared with brimonidine and dexmedetomidine (dutch belted rabbits [3]) | level in the systemic circulation [4] | time for which the level in the aqueous humor is maintained [4] [h] | amount found in urine [5] | passage through cornea and sclera ([1]; following topical dosing) | effect of increasing the amount on half life in the aqueous humor [1, 6] | effect of increasing the amount on systemic exposure [1, 6]
Nc1cc(Cl)c(N=C2NCCN2)c(Cl)c1 [apraclonidine, 2,6-dichloro-N-imidazolidin-2-ylidene-benzene-1,4-diamine] | rapidly cleared | – | – | – | – | – | – | – | – | –
Brc1c(N=C2NCCN2)ccc2[nH]cnc12 [4-bromo-N-imidazolidin-2-ylidene-1-H-benzimidazol-5-amine] | – | at least 50 fold | more efficacious at decreasing lop than brimonidine and dexmedetomidine; also recorded: outperforms brimonidine; also recorded: more effective than brimonidine and dexmedetomidine | more efficacious at decreasing IOP than brimonidine and dexmedetomidine; also recorded: outperforms brimonidine; also recorded: more potent and efficacious than brimonidine | undetectable levels | ≥ 8 | trace amounts | – | – | –
Brc1c(NC2=NCCN2)ccc2nccnc12 [brimonidine, (5-bromo-quinoxalin-6-yl)-imidazolidin-2-ylidene-amine] | rapidly cleared | – | – | – | – | – | – | readily pass through the cornea and sclera | does not improve its half life | increased systemic exposure
